As a reminder, the mortality is the share of the test organisms that died. A low value points to more survivors. Broadly, the amount remaining is the share of the starting amount still present when the sample was taken.

The test system of series [1] is right Purkinje fiber. In words: Effect on myocardial action potential duration (APD75) in isolated, perfused Purkinje fiber. Type of series: cell-based, mongrel adult dog. The conditions noted are these: Canis lupus familiaris, 20 min, 20 minutes' incubation, field stimulus of 1 Hz, 37°C, read-out: T (%), percent prolongation of myocardial action potential duration (APD75); for activation at 1 µM: Dose 1 x 10^-6 M; for activation at 10 µM: Dose 10 x 10^-6 M; for activation at 100 µM: Dose 100 x 10^-6 M. The protocol: After a mongrel adult dog was anesthetized by the intravenous administration of 30 mg/kg of pentobarbital, the heart was excised therefrom. Then, the right Purkinje fiber was isolated in a nutrient fluid (i.e., Tyrode's solution). The isolated right Purkinje fiber was fixed in a constant-temperature bath (20 ml) at 37°C and perfused with Tyrode's solution. In this state, the myocardial action potential duration (APD75) was measured before and after the administration of each test compound. Then, the percent prolongation of myocardial action potential duration (T) after the administration of each test compound was calculated according to the following equation. T(%) =(B - A)/(A)x 100 [formula] where A: APD75 before administration B: APD75 after administration
APD75 was measured as follows: A field stimulus of 1 Hz was given to the right Purkinje fiber, and any change in action potential was detected by a glass microelectrode (10-20 MΩ) penetrated into a Purkinje fiber and monitored on an oscilloscope via an amplifier. The waveform on the oscilloscope was analyzed by means of a computer, and the duration beween the point of action potential generation adn the point of 75% repolarization was defined as APD75. The test compounds shown in Table 2 were separately added to the perfusing nutrient fluid, and after 20 minutes' incubation was recorded. This test was carried out according to the method of Sato et al. [S. Sato, K. Hashimoto; Arzneimittel Forschung, 34(1), 3a, 376-380(1984)].

Series [2] is described as follows: Toxicity test (mortality rate 24 hours after administration). The conditions noted are these: mouse, in vivo, ip; 100 mg/kg (i.p.); twenty-four hours after administration; groups of three mice. The method, then:
The test compounds were separately administered to mice (ddy strain, male). The administration of each compound was carried out intraperitoneally (i.p.) in a dose of 100 mg/kg. Twenty-four hours after the administration, the mortality rate of the mice (in groups of three) was examined.

In series [3] the test system is ventricular muscle. In words: Effect on ventricular muscle refractory period (ERP) under ventricular pacing in anesthetized dog. The format is in vivo, mongrel adult dog. As to conditions: ventricular pacing at 400 msec. The method, then:
According to the method described below, the refractory period was measured before and after the intravenous administration of each test compound, and the percent prolongation of refractory period (ERP) was calculated according to the following equation. ERP prolongation (%) =(W - Y)/(Y)x 100 [formula] where W: Refractory period after administration Y: Refractory period before administration
After a mongrel adult dog was anesthetized by the intravenous (i.v.) administration of 30 mg/kg of pentobarbital, the chest was opened on the right side. Then, a set of silver-silver chloride electrodes spaced by 3 mm was sewn on the right ventricle, and […] electrical stimuli (a duration of 4 msec, and a current intensity equal to twice the threshold) were given at an interval of 400 msec. Thereafter, a small amount of alcohol was injected into a sinus artery in order to destroy the pacemaker activity, and the ventricular refractory period (ERP) was measured under ventricular pacing. Specifically, one train comprised a series of stimuli having an interval of 400 msec, and the interval between trains was usually 400 msec. During measurement of the refractory period, this interval was shortened by decrements of 10 msec, and the interval between trains at which the response to the first stimulus of the train disappeared was regarded as the refractory period. These electrical stimuli were given by programmed stimulation using a heart stimulation apparatus (Diamedical Co., Ltd.; DHM-226-3).

Series [4] can be described thus: Stability test in acid aqueous solution (Solution 1 of the Japanese Pharmacopoeia, pH 1.2), remaining compound by HPLC. The format is physicochemical. The conditions noted are these: Solution 1 (pH 1.2), 2 mg/ml, stirred at 37°C, HPLC. The protocol: In order to confirm the stability of the compounds of the present invention in an acid aqueous solution, stability was tested on the fumarate of 6-[3-[N-[2-(4-methanesulfonylaminophenyl)ethyl]-N-propylamino]propyl]-1,3-dimethyl-2,4(1H,3H)pyrimidinedione (the compound obtained in Example 118; hereinafter referred to as compound A) which is a compound in accordance with the present invention, and 1,3-dimethyl-6-{2-[N-ethyl-3-phenylpropylamino]ethylamino}2,4(1H,3H)-pyrimidinedione (hereinafter referred to as compound B) which is a pyrimidinedione derivative having a substituted amino group at the 6-position of the pyrimidinedione ring as described in European Publication No. 454,498 A2 and was used for purposes of comparison.
Solution 1 (pH 1.2) described in the Japaense Pharmacopoeia was prepared by adding 7.0 ml of hydrochloric acid and water to 2.0 g of sodium chloride so as to give the final volume of 1,000 ml.
Compounds A and B were dissolved in Solution 1 at a concentration of 2 mg/ml and the resulting solutions were stirred at 37°C. Thus, changes with time in the percentages of the remaining compounds A and B were examined by HPLC.

As for `CCCN(CCCc1cc(=O)n(C)c(=O)n1C)CCOc1ccc(NS(C)(=O)=O)cc1` [Example 121, 6-[3-[N-n-propyl-N-[2-(4-methanesulfonylaminophenoxy)ethyl]amino]propyl]-1,3-dimethyl-2,4(1H,3H)pyrimidinedione], in series [1], the activation at 1 µM came to 17%, the activation at 10 µM was found to be 68% and the activation at 100 µM came to 103%. In addition, the mortality at 24 h in series [2] is 0%. For the same compound, the “ERP (%), percent prolongation of refractory period” value (“ERP (%), percent prolongation” for short) in series [3] (Dose 0.1 mg/kg i.v.) is 6.2%. Further, the “ERP (%), percent prolongation” value in series [3] (Dose 0.3 mg/kg i.v.) is 20.0%. In addition, in series [3] (Dose 1.0 mg/kg i.v.), the “ERP (%), percent prolongation” value was found to be 33.3%.
`CCCN(CCCc1cc(=O)n(C)c(=O)n1C)CCc1ccc(NS(C)(=O)=O)cc1` [Example 118, 6-[3-[N-[2-(4-methanesulfonylaminophenyl)ethyl]-N-propylamino]propyl]-1,3-dimethyl-2,4(1H,3H)pyrimidinedione]: in series [1], the activation at 1 µM was 16%, the activation at 10 µM was 54% and the activation at 100 µM worked out at 81%. This compound gave a mortality at 24 h in series [2] of 0%. For the same compound, in series [4] (0 hr), the “Percentage of remaining compound” value is on record as 100%. The share remaining at 3 h in series [4] (jp solution 1, 3 hr, read-out: Percentage of remaining compound) stood at 100%. In series [4] (jp solution 1, 6 hr, read-out: Percentage of remaining compound), the share remaining at 6 h worked out at 99%. Moreover, the “ERP (%), percent prolongation” value in series [3] (Dose 0.1 mg/kg i.v.) was determined as 6.7%. Also, in series [3] (Dose 0.3 mg/kg i.v.), the “ERP (%), percent prolongation” value amounted to 20.0%. Moreover, in series [3] (Dose 1.0 mg/kg i.v.), the “ERP (%), percent prolongation” value stood at 33.3%.

These data come from patent EP0697407B1, “Pyrimidinedione derivatives and antiarrhythmic compositions containing same” (MITSUI TOATSU CHEMICALS, Inc., priority 1994, dated 1996).
